# Where no end group is shown, it is not given here. The star is where a group is joined. Biotin = O=C1N[C@H]2[C@H](CS[C@H]2CCCCC(=O)*)N1
# T1: recombinant human CCL5 (human, UniProt P13501 24-91)
# T1 construct: CCL5, human, recombinant protein; source: bought: PeproTech
# T1 sequence (looked up): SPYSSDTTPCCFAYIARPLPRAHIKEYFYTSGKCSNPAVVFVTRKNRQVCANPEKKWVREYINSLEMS
# Experiments:
# CXCR3A = assay: Calcium signaling in CXCR3A-transfectants; assay type: cell-based; details: CXCL10 5 ng/ml after prestimulation with buffer; CHO/CXCR3A; fura 2
# Excerpt: We further tried to reveal the mode of action of CXCL4^47–70 and CXCL4L1^47–70. First, we excluded that either peptide still binds/activates one of the CXCR3 isoforms, the receptors for intact CXCL4 and CXCL4L1. […]
# inhibit signaling by intact CXCL10. To study interaction of CXCL447–70 and CXCL4L147–70 with CXCR3A, CHO cells stably transfected with CXCR3A were loaded with the fluorescent dye fura 2 (Struyf et al. J. Immunol. 2009, 182:666). Changes in the intracellular Ca2+ concentrations ([Ca2+]i) in response to CXCL447–70 or CXCL4L147–70 treatment were monitored using a spectrofluorometer. The line in the spectra indicates the fluorescence intensity ratio (i.e. the fluorescence intensity measured after excitation at 340 nm divided by the fluorescence intensity measured after excitation at 380 nm). The results shown (one representative experiment out of three) illustrate a desensitization experiment, in which CHO/CXCR3A cells were stimulated first with a peptide (2 µg/ml) and 100 s later with intact CXCL10 […]
# peptides induced a rise in [Ca2+]i. When the cells were stimulated with 5 ng/ml intact CXCL10 100 s after peptide treatment, the response […]
# interact with CXCR3A. Arrows indicate the time of addition of the stimulus.
# (also on this page, place not known: www.impactjournals.com/oncotarget/ Oncotarget, Supplementary Materials 2014 CXCL4 47–70 CXCL4L1 47–70 CXCL4 47–70 CXCL4L1 47–70 CXCL4 47–70) […]
# [1] = test system: human retinal microvascular endothelial cells (HMVEC); assay: HMVEC MTT proliferation assay; assay type: cell-based; details: EGF 3 ng/ml; control medium PI=1; 3 to 4 days; MTT OD570–630; mean ± s.e.m., n=7
# Method: (§1) First, HMVEC and HLEC were seeded at 5 × 10^3 cells/well in EBM-2 + 1% FCS in a 96-well plate, whereas MDA-MB-231 were starved of growth factors overnight by replacing their growth medium with DMEM (serum-free) prior to seeding the tumor cells at 15 × 10^2 cells/well in DMEM + 1% FCS. As for the rest of the assay, the same protocol applies to all cells. Once adherent, cells were incubated with different concentrations of the peptides CXCL4^47–70 and CXCL4L1^47–70 as single stimuli or in combination with recombinant human EGF (3 ng/ml; R&D Systems, Minneapolis, MN) at 37°C/5% CO2. All conditions were tested in triplicate or quadruplicate. After 3 to 4 days, stimulation medium was removed and a sterile MTT solution was added [0.04 g/100 ml thiazolyl blue (Sigma-Aldrich, St. Louis, MO) in 20% PBS/80% RPMI without phenol red (Lonza)] for 3 to 4 hours. The formed formasan crystals were dissolved by replacing the MTT solution with acidic propanol (0.04 M HCl, 0.1% (v/v) Nondet P-40 in absolute isopropanol) and shaking the plate, shielded from light, for 10 minutes. Optical density (OD) was determined at 570 nm and 630 nm. The obtained ODs were processed to proliferation indexes (PI), expressed relative to appropriate buffer controls, i.e. ΔOD570–630X over ΔOD570–630CO.
# p21 in HMVEC = assay: Intracellular p21 content in HMVEC (ELISA); assay type: cell-based, human; details: EGF 20 ng/ml; 15 h; p21:total protein; mean ± s.e.m., n=9; p<0.001 versus control
# Method: Signaling assays were slightly adapted to the signaling molecules of interest in this study. HMVEC were stimulated with EGF (20 ng/ml) as a single stimulus or in combination with the peptides CXCL4^47–70 and CXCL4L1^47–70 (0.3 to 10 μg/ml) in order to evaluate their impact on the cell cycle-arresting p21. After 15 hours, the cells were washed three times with ice-cold PBS to stop the stimulation and lysis buffer [1 mM EDTA, 0.5% (v/v) Triton-X, 10 mM NaF, 150 mM NaCl, 1 mM DTT in PBS; pH 7.2–7.4] supplemented with a protease inhibitor cocktail (Sigma) was added. Cell residue was removed from the collected lysates by centrifugation (4°C, 10 min, 1666g). Lastly, the intracellular p21 content was determined by DuoSet® IC ELISA (cat n° DYC1047, R&D Systems) while, in parallel, total protein content was measured in a bicinchoninic acid (BCA) protein assay (Pierce, Rockford, IL).
# [2] = test system: human dermal lymphatic microvascular endothelial cells (HLEC); assay: HLEC MTT proliferation assay; assay type: cell-based; details: data not shown
# Method: as §1
# p21 = details: EGF-stimulated endothelial cells; cited from earlier work
# Excerpt: Previously, the EGF-induced reduction of the cyclin-dependent kinase inhibitor p21 was described. […] Therefore, we studied the effects of chemokine-derived peptides on p21 levels and, with it, their ability to arrest the cell cycle. Evaluation of the p21 content in HMVEC did confirm CXCL4^47–70 and CXCL4L1^47–70 to counteract the tendency of EGF to reduce p21 (Figure 2). […] Ad ...
# monocyte = details: through heteromultimerization with CCL5; cited from earlier work
# Excerpt: Concerning direct cytokine ligand interactions, both positive and negative interactions have been described for intact CXCL4 [33, 34, 37, 38] and its carboxy-terminal peptide. […] In this study we chose two cytokines important in our breast cancer model and verified interaction with CXCL4^47–70 and CXCL4L1^47–70: EGF as g ...
# recombinant human CCL5 = biological target: T1, recombinant human CCL5; assay: ELISA; 50 ng/ml CCL5 in PBS coated overnight at room temperature on high protein-binding ELISA plates, blocked with 0.1% casein; dilution curve of biotinylated peptide at 37 °C; detected with peroxidase-conjugated streptavidin, OD450; details: both partners purified
# endothelial cell = details: compared with CXCL4; cited from earlier work
# Excerpt: Angiogenesis, the formation of an ever more branching network of blood vessels from a pre-existing vascular network, has been established as a requisite for successful tumor growth and cancer progression. Anti-angiogenic therapy thus offers a promising approach to tackle one of the leading causes of mortality worldwide. However, classic anti-angiogenic therapeutics have encountered important hurdles and interest in less obvious targets, including inflammatory mediators such as the chemokines, increases. These chemotactic cytokines play an important role in immunity as they ...
molecule,measurement,setting,value
"CXCL10: intact CXCL10, CXCR3 ligand [reference compound]",calcium response to CXCL10,CXCR3A,significant increase in [Ca2+]i
EGF: recombinant human EGF (R&D Systems) [reference compound],"Proliferation index (PI), EGF alone",[1],1.42 ± 0.08
same,"intracellular p21 relative to control (100%), EGF alone",p21 in HMVEC,75.82 ± 3.69%
same,HLEC proliferation response to EGF,[2],not responsive to EGF-stimulation
"CXCL4: natural human CXCL4 isolated from stimulated platelets; 70 amino acid-long mature protein (protein, UniProt P02776 32-101, looked up) Platelet factor 4: EAEEDGDLQCLCVKTTSQVRPRHITSLEVIKAGPHCPTAQLIATLKNGRKICLDLQAPLYKKIIKKLLES",effect on EGF-induced p21 downregulation,p21,appeared to interfere with this p21 downregulation
same,effect on CCL5 monocyte chemotactic activity,monocyte,enhances monocyte chemotactic activity of CCL5
"Biotin-NGRKICLDLQAPLYKKIIKKLLES (peptide, UniProt P02776 78-101, looked up, CXCL4/Platelet factor-4 (PF-4), human, last 24 amino acids (residues 47-70) of the 70 amino acid-long mature protein; has Pro58, Lys66, Leu67; numbers count on: the mature protein; The functional assays (chemotaxis, calcium) used the peptide without mention of biotin; also called carboxy-terminal peptide of CXCL4/Platelet factor-4 (PF-4); source: synthetic peptide (Fmoc chemistry, purified by …)) [NH2-terminally biotinylated CXCL4^47–70 peptide]",binding result,recombinant human CCL5,binds
"CXCL4L1: recombinant human CXCL4L1 isolated from baculovirus-infected Sf9 cells (protein, UniProt P10720 31-104, looked up) Platelet factor 4 variant: FARAEAEEDGDLQCLCVKTTSQVRPRHITSLEVIKAGPHCPTAQLIATLKNGRKICLDLQALLYKKIIKEHLES",inhibition of CXCL8- and FGF2-induced endothelial cell chemotaxis,endothelial cell,more efficiently than CXCL4

# Source: paper PMC4279419, “Angiostatic, tumor inflammatory and anti-tumor effects of CXCL4^47–70 and CXCL4L1^47–70 in an EGF-dependent breast cancer model” (Oncotarget, 2014)
